We go through 101 compounds from PubChem BioAssay AID849 (SRMLSC, 2007).

Activity calls are given as the source filed them. The rule behind the calls is not given here. Where only a bound is given, the exact number is not on record here.

This experiment deals with Saccharomyces cerevisiae lifespan shortening, growth inhibition. As to the kind of experiment: yeast lifespan shortening compounds, dose response (AID 849).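 Note: yeast growth read as optical density after two days at 30 degrees C.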
Regarding `Cc1ccc2c(c1)C(=NC1CCCCC1)c1cc3ccccc3nc1-2`, the IC50 is 41.3 µM. As to `COc1ccc(-c2cc(C(=O)N3CCN(c4ncccn4)CC3)c3ccccc3n2)c(OC)c1`, the IC50 is 49.8 µM. Regarding `c1ccc(-n2c(-c3ccco3)nnc2-c2ccco2)cc1`, the IC50 is > 100 µM (inactive).

On to `COc1ccc(CNC(=O)CSc2nnc(-c3ccc(NC(C)=O)cc3)n2C)cc1`, for which the IC50 is > 100 µM (inactive). As to `COc1ccc(CN2CN(C(C)C)CSC2=S)cc1`, the IC50 is 35.3 µM. The result for `CC1=CC(=O)C=C(C)C1=NOS(=O)(=O)c1ccccc1` reads > 100 µM (inactive); that for `c1ccc2nc3c(nc2c1)[nH]c1ccccc13`, 25 µM; that for `COC(=O)c1ccc(CSc2ccc3nnc(-c4cccc(F)c4)n3n2)o1`, > 100 µM (inactive). As for `CCOC(=O)c1c(N)sc2c(OC)c(Br)ccc12`, the IC50 was > 100 µM (inactive). Take `Oc1c(CN2CCN(c3ccc(F)cc3)CC2)cc(Cl)c2cccnc12`: the IC50 is 10.2 µM.

Regarding `O=C(O)c1cc2c(s1)-c1ccccc1CC2`, the IC50 was 30.5 µM.

On to `Cc1ccc(-c2cc(-c3ccccc3Cl)[nH]n2)c(O)c1`, for which the IC50 was 51.1 µM. Consider `O=C1c2ccccc2C(=O)c2c1cccc2N1CCOCC1`, for which the IC50 is 46.6 µM. `O=c1c(-c2ccc(Cl)cc2)[n+]([O-])c2ccccc2n1O`: the 50% inhibitory concentration (IC50) was 7.87 µM. Take `COc1ccc(C(=O)N/N=C/c2sc3ccccc3c2O)cc1`: the IC50 was > 100 µM (inactive). The result for `Cc1conc1NC(c1cccs1)c1ccc2cccnc2c1O` (stereo unspecified) reads 40.8 µM. Regarding `NNC(=O)c1ccc(COc2ccc3c(c2)CCC3)o1`, the IC50 was 15.1 µM.

As for `COc1ccc(-n2c(Cc3cccn3C)nnc2SCC(=O)N2CCCC2)cc1`, the IC50 was > 100 µM (inactive). Turning to `O=C1CC(N2CCN(c3nc4ccccc4s3)CC2)C(=O)N1Cc1cccs1` (stereo unspecified), the IC50 was > 100 µM (inactive). `Oc1cccc2ccc(Nc3ccccn3)nc12`: the IC50 was 14 µM. For `CN(C)c1ccc(/C=C/c2ccc3ccccc3[n+]2C)cc1`, the IC50 was 26.4 µM.

Take `CCOc1ccc(N/N=C(/C#N)C(N)=O)cc1`: the IC50 is 7.82 µM. For the compound `Oc1ccc(CN2CCCCC2)c2cccnc12`, the IC50 was 46.4 µM. With `N=c1n(CCN2CCOCC2)c2ccccc2n1CC(=O)c1ccc(Cl)c(Cl)c1`, the IC50 is > 100 µM (inactive). For `Cc1cc(O)c(/C=N/Nc2ccc(Cl)cc2)c(=O)o1`, the IC50 was 5.9 µM.

With `O=C(Oc1ccc(Cl)c2cccnc12)c1ccco1`, the IC50 is 14.6 µM. In the case of `O/N=C/c1cc(Cl)ccc1OCc1cccc2ccccc12`, the IC50 was > 100 µM (inactive). In the case of `CCCCn1c(/N=C/c2c[nH]c3ccccc23)nc2ccccc21`, the IC50 is > 100 µM (inactive).

With `CCOC(=O)C(=NC(C)CC)NNc1ccc(Br)cc1` (stereo unspecified), the IC50 was 8.41 µM.

For the compound `COc1ccc(OCCNC2CCCC2)cc1`, the IC50 was > 100 µM (inactive). Under `CCCCCCCCCCCCCCCC[n+]1cccc(C(=O)N(CC)CC)c1` stands 3.69 µM; under `CCCCCCCOC(=O)C[N+](C)(C)CCOC1CC2CCC1(C)C2(C)C` (stereo unspecified), 28.4 µM.

With `C/C(=N\NC(=O)c1ccc(CSc2cccc3cccnc23)cc1)C1CCCCC1`, the half-maximal inhibitory concentration (IC50) was 33.8 µM.

On to `O=c1c2ccccc2nc2sc3ccccc3n12`, for which the IC50 is 27.8 µM. For `c1ccc(N(c2ccccc2)c2nc(-n3ccnc3)nc(-n3ccnc3)n2)cc1`, the IC50 was > 100 µM (inactive). Under `N#C/C(=N/O)c1nc(-c2ccc(F)cc2)cs1` stands 24.9 µM; under `Fc1ccc2nc3[nH]c4ccccc4c3nc2c1`, 39.9 µM. On to `CC1CCCC2(C1)NC(=S)N(c1ccccc1)N2` (stereo unspecified), for which the IC50 is 38.2 µM.

For the compound `O=C(CCSc1nnc(-c2ccncc2)o1)Nc1ccc(Cl)cc1`, the IC50 is 37.7 µM.

As for `Cc1cc2nc(C)n3c4ccccc4nc3n2n1`, the IC50 is 15.4 µM. Turning to `O=C1c2ccccc2C(=O)N1Cc1ccco1`, the IC50 is > 100 µM (inactive).

As for `O=C1C=C(c2ccc(Cl)cc2)C(=O)N1Nc1ccccc1`, the 50% inhibitory concentration (IC50) is 4.66 µM. `Cc1ccc(/C=C/C(=O)c2ccccc(=O)c2O)cc1C`: the IC50 is 5.31 µM. As to `COc1ccc(CCNC(=O)c2cnn3c(C(F)F)cc(C)nc23)cc1OC`, the IC50 was > 100 µM (inactive). As for `Cc1cc(C)cc(NS(=O)(=O)c2cnc(Cl)c(Cl)c2)c1`, the IC50 was 47.5 µM. For `O=C(Nc1nnc(C2CC2)s1)c1ccccn1`, the concentration for half-maximal inhibition (IC50) is 42.6 µM. With `Cc1ccccc1N=Cc1cccc(O)c1O`, the IC50 is 10 µM. For `CCOC(=O)c1cc([N+](=O)[O-])c([N+](=O)[O-])cc1NC(C)=O`, the IC50 was less than 0.098 µM.

As to `C=C(C)COc1ccc(-c2[nH]ncc2-c2ccccc2OC)c(O)c1`, the IC50 is > 100 µM (inactive). Under `c1ccc(-c2ccc(C(c3ccccc3)n3ccnc3)cc2)cc1` (stereo unspecified) stands 1.67 µM.

Regarding `C=CCn1cnc2c(c1=O)c1nc3ccccc3nc1n2/N=C/c1cc(OC)c(OC)c(OC)c1`, the IC50 is 37.4 µM. Take `CCSc1nnc(NC(=O)c2ccccn2)s1`: the IC50 was 9.84 µM. Take `CCCCCC1CCC(C(=O)O)CC1` (stereo unspecified): the IC50 is > 100 µM (inactive). As to `COc1ccc(NCc2nc3ccccc3n2CCOc2ccc(C)cc2)cc1`, the IC50 is 31.2 µM. For `CC(C)(C)c1ccc(C(=O)NC(=S)NNC(=O)c2cccs2)cc1`, the IC50 is 42.2 µM. For the compound `O=c1cc(-c2ccncc2)oc2ccccc12`, the IC50 was 51.1 µM. As for `O=C(O)c1ccc(SCc2cnc(Cl)s2)cc1`, the IC50 is 7.4 µM. Take `O=c1c2cccc3c2c(nn1CN1CCOCC1)-c1ccccc1-3`: the 50% inhibitory concentration (IC50) is 23.5 µM.

As to `O=[N+]([O-])c1cc(/C=N/O)ccc1Sc1ccccc1`, the IC50 is > 100 µM (inactive). Regarding `Cn1c2ccccc2c2cc(C(=O)O)ccc21`, the IC50 was 25.4 µM. For the compound `Cc1nc2ccc(NC(=O)c3cc([N+](=O)[O-])cc([N+](=O)[O-])c3Cl)cc2s1`, the IC50 was 28.9 µM. Take `COc1cc(CNCCN2CCOCC2)ccc1OCc1cccc(Cl)c1`: the IC50 is > 100 µM (inactive). As to `O=[N+]([O-])c1ccc(CN2CCCCCC2)s1`, the IC50 was > 100 µM (inactive). For `O=C1C2C3C=CC(CO)(O3)C2C(=O)N1c1ccccc1-c1ccccc1` (stereo unspecified), the IC50 was > 100 µM (inactive). As to `CCc1nc2ccccc2c(=O)n1NC(=O)c1c(O)c2cccc3c2n(c1=O)CCC3`, the IC50 is > 100 µM (inactive). Under `O=C1C(=O)c2ccccc2-c2ccccc21` stands 7.79 µM.

Turning to `COc1ccc(S(=O)(=O)n2oc(=O)cc2-c2ccccc2)cc1OC`, the IC50 was > 100 µM (inactive). With `CCN1CCN(C(=O)C(NS(=O)(=O)c2ccc3nc(C)sc3c2)C(C)C)CC1` (stereo unspecified), the IC50 was > 100 µM (inactive). The result for `CCc1ccc(C2NC(=S)NC3=C2C(=O)N(c2ccccc2OC)C(c2ccc(CC)cc2)N3)cc1` (stereo unspecified) reads > 100 µM (inactive); that for `Cc1nn(-c2ccccc2)c2sc(-c3n[nH]c(=S)o3)cc12`, > 100 µM (inactive); that for `O=C(Nc1nc(-c2ccccn2)cs1)C1COc2ccccc2O1` (stereo unspecified), 12.7 µM. On to `Cc1ccc(Nc2cc(C)nn2-c2nc(C)cc(=O)[nH]2)cc1`, for which the IC50 is 1.18 µM. For the compound `O=c1oc2ccccc2c(N2CCCC2)c1CN1CCCC1`, the IC50 is > 100 µM (inactive). In the case of `CNC(=O)Oc1cccc(-c2cn3cc(OC(=O)NC)ccc3n2)c1`, the IC50 was 10.3 µM. The result for `CC(=O)NC(c1cccs1)c1cc([N+](=O)[O-])c2cccnc2c1O` (stereo unspecified) reads > 100 µM (inactive); that for `O=c1cc(-c2ccccc2)n(S(=O)(=O)c2ccccc2)o1`, 39.8 µM; that for `O=C(COc1ccccc1)NNC(=S)NC(=O)c1ccc(Cl)cc1Cl`, 31.6 µM.

Turning to `N#C/C(=C\c1ccc([N+](=O)[O-])o1)c1nc2ccccc2[nH]1`, the IC50 is > 100 µM (inactive).

Turning to `NC(N)=N/N=C/c1ccc(OCc2ccc(Cl)cc2Cl)cc1`, the IC50 is > 100 µM (inactive). On to `COc1cccc(/C=N/N2C(=O)CSC2=S)c1O`, for which the IC50 was > 100 µM (inactive).

As to `OCc1ccnc2c(O)cccc12`, the IC50 is > 100 µM (inactive). As to `COc1ccc(-c2cc(=O)n(-c3nc4ccccc4[nH]3)[nH]2)cc1`, the IC50 was 12.5 µM.

In the case of `Cc1c2cc(O)c(=O)cc-2oc2cc(O)c(O)cc12`, the IC50 was 28.1 µM. As to `Oc1ccc(COCc2ccccc2)c2cccnc12`, the IC50 was 6.43 µM. Turning to `Cc1cc(C(=O)COC(=O)c2ccc[nH]c2=O)c(C)n1-c1ccccc1`, the IC50 was 21.3 µM. `COc1cc(Br)cc(/C=N/c2ncn[nH]2)c1O`: the IC50 was 28.8 µM. Under `CC1=C/C(=N\OS(=O)(=O)c2ccccc2)C(C)=CC1=O` stands 1.54 µM; under `COc1ccc(Nc2cnn(-c3nc4ccccc4s3)c(=O)c2Cl)cc1`, > 100 µM (inactive); under `Cc1cc(C)nc(N/N=C/C2=C(N3CCOCC3)C(=C\c3ccc(Cl)cc3)/CC2)n1`, > 100 µM (inactive).

On to `O=c1oc2ccccc2c(O)c1/C=C1\C=Nc2ccccc21`, for which the IC50 was 18 µM. Under `OCCN(CCO)CC(O)COc1ccc(C23CC4CC(CC(C4)C2)C3)cc1` (stereo unspecified) stands 35.7 µM; under `CCc1oc2ccccc2c1C(=O)c1cc(Br)c(O)c(Br)c1`, 49.2 µM. Consider `Cc1ccc(S(=O)(=O)Nc2ccc(SC(F)F)cc2)c(C)c1`, for which the IC50 was > 100 µM (inactive). Regarding `Cc1cc(-c2n[nH]c(=S)n2/N=C/c2cc([N+](=O)[O-])ccc2Cl)n[nH]1`, the IC50 is > 100 µM (inactive). On to `CCOC(=O)CNC(=O)CSc1nnc(-c2ccco2)n1Cc1ccco1`, for which the IC50 is > 100 µM (inactive). For `CC(C)N=c1scc(-c2ccco2)n1/N=C/c1ccc(O)c(O)c1`, the IC50 is 49.1 µM. Under `OC(CN1CCN(c2ccccn2)CC1)Cn1c2ccc(Cl)cc2c2cc(Cl)ccc21` (stereo unspecified) stands 47.5 µM.

Take `Cc1cc(/C=N/n2cnnc2)c(C)n1-c1ccc(OCc2ccc(Cl)cc2Cl)cc1`: the IC50 was > 100 µM (inactive). In the case of `Cc1cccc(OCCN2CSC(=S)N(C)C2)c1`, the IC50 is 13 µM.

For `CC(C)N=c1scc(-c2cccs2)n1/N=C/c1ccc(O)c(O)c1O`, the IC50 is > 100 µM (inactive).

As to `CC(=O)n1cc(C(C[N+](=O)[O-])SCCN)c2ccccc21` (stereo unspecified), the IC50 was 8.5 µM.

One may read the IC50 as the concentration that inhibits the measured activity by half.
